Data from US20100249205A1 (ARIZONA BOARD OF REGENTS, priority 2005, published 2010).
Where two headings read alike, the source gives them in different places. One block for each compound: values may come before it.

Legend:
[1] = tested on: NCI cell panel; experiment: Cytotoxicity, NCI cell panel (growth inhibition, MTT assay); details: Homo sapiens, read-out: Cytotoxicity: NCI cell panel IC50
Text: The proliferation of cells may be dependent on the PI-3 kinase-Akt-mTOR signaling pathway. In addition, signaling through PI-3 kinase and Akt appears to inhibit apoptosis. […] The MTT assay is a standard colorimetric assay for measuring cellular proliferation (cell growth). It is universally used to determine cytotoxicity of potential medicinal agents and other toxic materials. Yellow MTT (3-(4,5-Dimethylthiazol-2-yl)-2,5-diphenyltetrazolium bromide) is reduced to purple formazan in the mitochondria of living cells. This reduction takes place only when mitochondrial reductase enzymes are active, and therefore conversion is directly related to the number of viable (living) cells. […] Toxicities are measured at the maximum tolerated dose or the highest dose tested. […] Alanine aminotranferease (ALT) and aspartate aminotransferase (AST) are enzymes located in liver cells that leak out into the general circulation when liver cells are injured. […] A low liver toxicity and a high lymphocyte toxicity as a surrogate for inhibition of tumor cell growth is the desirable feature.

[2] = target: PI-3 kinase; format: biochemical; details: read-out: PI-3 kinase inhibition IC50
[3] = target: mTOR (Homo sapiens, UniProt P42345); experiment: mTOR inhibition (Table 1); format: biochemical
[4] = target: T1, recombinant bovine p110α/p85α (Bos taurus, UniProt P32871); experiment: Recombinant PI-3 kinase inhibition, [32P]γ-ATP dependent phosphorylation of phosphatidylinositol; format: biochemical
T1 construct: purchased Jena Bioscience, Jena, Germany
T1 sequence (P32871 whole entry): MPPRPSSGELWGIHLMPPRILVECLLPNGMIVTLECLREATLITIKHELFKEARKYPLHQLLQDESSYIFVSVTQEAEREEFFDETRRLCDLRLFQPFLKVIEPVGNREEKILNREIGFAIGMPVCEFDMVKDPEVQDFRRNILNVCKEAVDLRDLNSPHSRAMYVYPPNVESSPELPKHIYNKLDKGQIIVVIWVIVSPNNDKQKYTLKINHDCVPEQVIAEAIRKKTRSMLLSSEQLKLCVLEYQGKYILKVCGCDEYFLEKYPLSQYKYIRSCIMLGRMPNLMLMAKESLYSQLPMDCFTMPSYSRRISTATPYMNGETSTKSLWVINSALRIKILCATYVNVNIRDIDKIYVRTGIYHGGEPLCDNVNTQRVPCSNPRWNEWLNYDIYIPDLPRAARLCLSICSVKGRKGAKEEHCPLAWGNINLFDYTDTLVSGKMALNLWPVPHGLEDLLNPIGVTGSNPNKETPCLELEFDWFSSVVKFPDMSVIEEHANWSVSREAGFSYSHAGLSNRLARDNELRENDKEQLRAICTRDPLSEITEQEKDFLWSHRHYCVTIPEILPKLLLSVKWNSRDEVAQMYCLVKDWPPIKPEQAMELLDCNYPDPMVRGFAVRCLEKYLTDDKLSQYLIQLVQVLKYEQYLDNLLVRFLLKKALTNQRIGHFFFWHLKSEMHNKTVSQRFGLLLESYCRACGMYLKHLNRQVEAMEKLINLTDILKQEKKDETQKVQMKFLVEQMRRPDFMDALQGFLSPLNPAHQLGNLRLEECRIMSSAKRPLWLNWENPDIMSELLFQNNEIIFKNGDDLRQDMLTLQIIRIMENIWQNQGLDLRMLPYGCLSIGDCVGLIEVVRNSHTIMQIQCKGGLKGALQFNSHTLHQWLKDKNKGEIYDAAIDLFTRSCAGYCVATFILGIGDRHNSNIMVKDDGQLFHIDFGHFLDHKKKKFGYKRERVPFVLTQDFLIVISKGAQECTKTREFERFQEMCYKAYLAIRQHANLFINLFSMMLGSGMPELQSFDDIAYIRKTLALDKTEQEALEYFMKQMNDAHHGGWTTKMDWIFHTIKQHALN
T1 sequence (P23727 whole entry partner): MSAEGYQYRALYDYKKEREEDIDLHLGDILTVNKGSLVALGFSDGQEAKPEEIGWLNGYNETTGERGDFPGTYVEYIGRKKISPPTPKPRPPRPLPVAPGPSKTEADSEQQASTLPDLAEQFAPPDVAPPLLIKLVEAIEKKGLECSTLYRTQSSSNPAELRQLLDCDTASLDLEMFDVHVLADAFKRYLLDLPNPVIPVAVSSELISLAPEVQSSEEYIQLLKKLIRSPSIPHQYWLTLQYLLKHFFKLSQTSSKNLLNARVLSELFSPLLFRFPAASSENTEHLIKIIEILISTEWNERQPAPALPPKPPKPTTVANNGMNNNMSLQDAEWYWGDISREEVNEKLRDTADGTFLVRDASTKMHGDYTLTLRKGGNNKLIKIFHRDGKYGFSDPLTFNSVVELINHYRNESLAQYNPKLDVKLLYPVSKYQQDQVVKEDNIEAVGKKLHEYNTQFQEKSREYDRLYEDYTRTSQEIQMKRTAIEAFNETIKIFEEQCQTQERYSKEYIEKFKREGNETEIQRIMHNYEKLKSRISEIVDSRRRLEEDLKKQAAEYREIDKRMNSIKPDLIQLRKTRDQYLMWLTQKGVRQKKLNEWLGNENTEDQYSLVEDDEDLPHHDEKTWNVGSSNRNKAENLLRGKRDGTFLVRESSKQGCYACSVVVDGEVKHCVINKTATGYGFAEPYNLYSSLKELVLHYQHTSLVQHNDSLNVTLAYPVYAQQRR

[5] = target: T2, recombinant human p110δ/p85α (Homo sapiens, UniProt O00329); experiment: as above; format: biochemical
T2 construct: purchased Upstate, Charlottesville, Va
T2 sequence (O00329 whole entry): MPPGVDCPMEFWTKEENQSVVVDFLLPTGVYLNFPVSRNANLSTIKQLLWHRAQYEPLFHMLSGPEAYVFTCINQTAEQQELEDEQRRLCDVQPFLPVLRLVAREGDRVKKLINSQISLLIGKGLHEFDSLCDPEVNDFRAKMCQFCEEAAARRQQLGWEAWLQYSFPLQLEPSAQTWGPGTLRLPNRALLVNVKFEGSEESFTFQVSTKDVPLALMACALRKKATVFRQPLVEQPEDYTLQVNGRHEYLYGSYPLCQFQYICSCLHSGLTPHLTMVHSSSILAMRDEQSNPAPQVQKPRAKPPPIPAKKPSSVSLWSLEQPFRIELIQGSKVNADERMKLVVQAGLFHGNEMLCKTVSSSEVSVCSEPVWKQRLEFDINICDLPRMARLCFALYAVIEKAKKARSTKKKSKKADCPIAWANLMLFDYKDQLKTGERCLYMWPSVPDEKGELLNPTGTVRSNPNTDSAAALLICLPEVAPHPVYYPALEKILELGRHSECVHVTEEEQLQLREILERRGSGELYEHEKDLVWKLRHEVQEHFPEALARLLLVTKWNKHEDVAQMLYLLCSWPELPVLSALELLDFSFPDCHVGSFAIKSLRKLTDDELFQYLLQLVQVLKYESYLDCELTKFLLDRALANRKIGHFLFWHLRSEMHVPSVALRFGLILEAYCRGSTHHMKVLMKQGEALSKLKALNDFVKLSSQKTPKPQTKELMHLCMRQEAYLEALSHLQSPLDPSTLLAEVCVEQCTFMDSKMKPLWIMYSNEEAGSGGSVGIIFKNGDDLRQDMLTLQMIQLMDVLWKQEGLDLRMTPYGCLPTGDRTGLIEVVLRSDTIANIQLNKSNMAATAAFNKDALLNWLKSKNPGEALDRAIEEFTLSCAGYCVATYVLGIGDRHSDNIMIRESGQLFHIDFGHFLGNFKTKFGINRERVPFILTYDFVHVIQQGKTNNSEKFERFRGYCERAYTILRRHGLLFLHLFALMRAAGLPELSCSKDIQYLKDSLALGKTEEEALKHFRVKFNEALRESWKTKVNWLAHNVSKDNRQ
T2 sequence (P27986 whole entry partner): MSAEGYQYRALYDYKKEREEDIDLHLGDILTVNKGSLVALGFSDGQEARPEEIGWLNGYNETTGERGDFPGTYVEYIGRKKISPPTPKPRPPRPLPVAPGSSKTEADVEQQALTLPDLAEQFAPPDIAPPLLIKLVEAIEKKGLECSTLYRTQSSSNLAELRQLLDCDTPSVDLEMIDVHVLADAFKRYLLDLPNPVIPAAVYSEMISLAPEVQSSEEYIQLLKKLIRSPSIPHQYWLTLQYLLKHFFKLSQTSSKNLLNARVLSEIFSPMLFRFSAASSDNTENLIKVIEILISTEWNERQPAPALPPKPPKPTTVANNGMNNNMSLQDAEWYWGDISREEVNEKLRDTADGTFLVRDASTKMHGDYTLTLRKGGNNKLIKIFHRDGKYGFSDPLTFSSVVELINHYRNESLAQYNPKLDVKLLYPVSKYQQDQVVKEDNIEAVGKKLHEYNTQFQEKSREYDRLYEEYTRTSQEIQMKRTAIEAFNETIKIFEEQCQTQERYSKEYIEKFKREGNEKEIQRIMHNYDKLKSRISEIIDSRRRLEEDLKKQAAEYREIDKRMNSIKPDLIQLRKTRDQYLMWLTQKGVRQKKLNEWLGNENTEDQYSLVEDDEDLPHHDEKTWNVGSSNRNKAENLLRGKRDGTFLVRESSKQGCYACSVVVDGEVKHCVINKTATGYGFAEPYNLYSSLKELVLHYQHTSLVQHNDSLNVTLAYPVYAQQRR

[6] = tested on: phospho-Ser^473-Akt in HT-29 colon cancer cells; experiment: Inhibition of EGF-dependent activation of Akt (phospho-Ser473-Akt western blot); format: cell-based, human; details: HT-29 cells, 4 hours exposure, EGF 50 ng/ml for 20 minutes
Procedure: The cells were then stimulated with epidermal growth factor (EGF) at 50 ng/ml for 20 minutes. Cells were lysed and the proteins were separated on an SDS-PAGE and transferred to nitrocellulose.

[7] = tested on: HT-29 human colon cancer cells; experiment: Cytotoxicity / cell growth inhibition in HT-29 cells, cell number by flow cytometry; format: cell-based; details: read-out: growth inhibitory concentration 50% (IC50)
Procedure: The compounds were added from a 10 mg/ml stock solution in ethanol. Cell number was determined after 3 days by flow cytometry using a Guava EasyCyte Plus flow cytometer (Guava Technologies). The results are expressed as cell number at the end of the assay as percent of the control value with no drug. Values are the mean of 3 determinations and bars are standard deviation.

[8] = Stability of PX-866 in buffer systems by HPLC; format: physicochemical; details: for % remaining / % degradation: 1 mg/mL; for % remaining: within 2 hours, 4° C.; for % degradation: after 2 hours of storage
Procedure: This solution was used as a stock to make the various test buffer solutions to be analyzed. The stock, in each case, was diluted 1:10 to a final storage concentration of 1 mg/mL with 5% dextrose for injection (D5W), sterile water for injection (SW), 0.9% sodium chloride for injection (NS), absolute ethanol (EtOH), and 20 mM sodium phosphate (NaH2PO4) buffer. Prior to analysis the test buffers were further diluted 1:100, to a final analytical concentration of 10 μg/mL, with 50:50 0.2% formic acid:methanol, v:v. 50 μL of each sample was then injected into the HPLC system (Alliance 2695 Separation Module, Waters, Milford, Mass.; see Table 2 for HPLC parameters) for analysis. The 2 hour and 24 hour test samples were stored, undiluted, at 4° C. prior to analysis while the 0 hour samples were immediately quantified following dilution.

[9] = In vitro metabolism in murine S9 fractions; format: in vitro ADME; details: phase I, phase II and phase I/II reactions, 60 min
Procedure: Metabolites generated in these reactions were identified by HPLC runs, using a wavelength of 310 nm (see FIG. 6C). Peaks representing metabolites were identified by comparing the HPLC profiles (at 310 nm) in chromatograms from 0 min and 60 min reaction times. The corresponding mass spectral (MS) analysis of these peaks, using quadrupolar time-of-flight MS allowed the accurate mass of the metabolites to be determined (see FIG. 6D). Metabolynx software (Waters-MicroMass, Milford, Mass.) was used to interpret the spectra.
We identified the M#1 as a reduction product which is most probably a non-microsomal carbonyl reduction of a ketone to a secondary alcohol, as described in previous metabolism studies. In addition, M#2-3 were the same reduction products however, the alteration in retention time may indicate that the molecule undergoes reduction in sites other than that observed with M#1.

[10] = from U.S. application Ser. No. 11/178,553; cited from earlier work
[11] = HT-29 cells, 3 days, cell number as percent of control

Compound: COCC1OC(=O)C(=CN2CCCC2)C2=C(O)C(=O)C3=C(C(OC(C)=O)CC4(C)C(=O)CCC34)C21C (stereo not drawn) [PX-867, Acetic acid 6-hydroxy-1α-methoxymethyl-10β,13β-dimethyl-3,7,17-trioxo-4-pyrrolidin-1-yl-methylene-1,3,4,7,10,11β,12,13,14α,15,16,17-dodecahydro-2-oxa-cyclopenta[α]phenanthren-11-yl]
IC50 [1]: 500 nM
IC50 [2]: 1.1 nM
IC50 [3]: > 3000 nM

inhibition of p110α isoform of PI-3 kinase [4]: as active as PX-866 or wortmannin
inhibition of p110δ isoform of PI-3 kinase [5]: as active as PX-866 or wortmannin
IC50 for inhibition of phospho-Ser473-Akt (ratio to total Akt) [6]: 40 nM
Compound: 17-hydroxy PX-866 [PX-866-2]
IC50 [7, 11]: > 50000 nM

Compound: COC[C@H]1OC(=O)c2coc3c2[C@@]1(C)C1=C(C3=O)[C@@H]2CCC(=O)[C@@]2(C)C[C@H]1OC(C)=O [Wortmannin, wortmannin, reference compound]
IC50 [1]: 8900 nM

Compound: 11-deacetylated,17-hydroxy PX-866 [PX-866-1]
inhibition of p110α isoform of PI-3 kinase [4]: considerably less active
inhibition of p110δ isoform of PI-3 kinase [5]: considerably less active
IC50 for inhibition of phospho-Ser473-Akt (ratio to total Akt) [6]: greater than 70 nM
IC50 [7, 11]: 4500 nM

Compound: C=CCN(/C=C1/C(=O)O[C@H](COC)[C@@]2(C)C1=C(O)C(=O)C1=C2[C@H](OC(C)=O)C[C@]2(C)C(=O)CC[C@@H]12)CC=C [PX-866, Acetic acid 4-diallylaminomethylene-6-hydroxy-1-α-methoxymethyl-10β,13β-dimethyl-3,7,17-trioxo-1,3,4,7,10,11β,12,13,14α,15,16,17-dodecahydro-2-oxa-cyclopenta[α]phenanthren-11-yl ester]
IC50 [1]: 2200 nM
IC50 [2]: 0.5 nM
% remaining ([8]; 20 mM sodium phosphate buffer): > 60%
% remaining ([8]; D5W (5% dextrose for injection)): > 80%
% degradation ([8]; EtOH (absolute ethanol)): < 10%
% degradation ([8]; NS (0.9% sodium chloride for injection)): < 10%
% degradation ([8]; SW (sterile water for injection)): < 10%
stability from 2 to 24 hours ([8]; regardless of the buffer system employed): maintained relative stability
type of metabolites formed [9]: only Phase I-type metabolites were formed
IC50 ([3]; read-out: mTOR inhibition IC50): > 3000 nM
IC50 ([7]; Homo sapiens, HT-29, 72 h): 4000 nM
blood levels following oral administration [10]: low
